{
  "source": "patent US12570662B2",
  "about": "“Substituted pyrrolo[1,2-b]pyridazines as bifunctional degraders of interleukin-1 receptor-associated kinases” (Nurix Therapeutics, Inc., priority 2021, dated 2026)",
  "target": "T1, IRAK4 (Homo sapiens, UniProt Q9NWZ3)",
  "T1 construct": "C-terminal HiBiT-tagged Jurkat cells (polyclonal cell line or clone 8D5); endogenous in cells; host or cells: Jurkat cells (polyclonal cell line or clone 8D5), HiBiT-tagged",
  "T1 sequence (Q9NWZ3 1-460)": "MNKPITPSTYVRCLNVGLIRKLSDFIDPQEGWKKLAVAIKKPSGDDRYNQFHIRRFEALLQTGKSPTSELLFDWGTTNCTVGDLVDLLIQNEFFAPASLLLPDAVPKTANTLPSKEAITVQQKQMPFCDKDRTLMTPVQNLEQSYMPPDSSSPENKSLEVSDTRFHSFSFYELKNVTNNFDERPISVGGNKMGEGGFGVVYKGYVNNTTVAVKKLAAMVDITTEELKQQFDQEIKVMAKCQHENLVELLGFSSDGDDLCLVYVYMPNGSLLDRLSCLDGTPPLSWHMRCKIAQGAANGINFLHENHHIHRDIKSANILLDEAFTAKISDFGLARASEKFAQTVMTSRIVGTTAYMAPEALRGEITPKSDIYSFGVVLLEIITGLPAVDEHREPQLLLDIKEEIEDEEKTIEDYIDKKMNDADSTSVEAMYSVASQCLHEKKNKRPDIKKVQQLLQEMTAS",
  "experiment": "IRAK4 Degradation HiBit Assay",
  "type": "cell-based",
  "settings": "C-terminal HiBiT-tagged Jurkat cells, 4 hrs incubation; for DC50: % IRAK4 remaining, four-parameter fit (IC50 used as DC50); for Dmax: from fit of % IRAK4 remaining, read-out: Dmax",
  "experimental": "Compound dilution series (11-point, 3.16-fold dilutions in DMSO, columns 1-11 and 12-22) at 500× the final required concentrations were prepared in Labcyte LDV 384-well plates (cat. no. LP-0200) using a Labcyte Echo 550 Liquid Handler. The 500× solutions ranged from 5 mM to 0.5 μM (final assay concentration range 10 μM to 0.1 nM). Using the Echo, the 500× solutions were stamped into white, 384-well assay plates (Corning, cat. no. 3570) at 60 nL/well. The following assay plate controls were also stamped at 60 nL/well: DMSO in wells E23-P23 (NC, Negative Control, maximum signal), 5 mM solution control compound al in wells A23-D23 and M24-P24 (AC, Active Control, minimum signal/background, 10 μM final assay concentration), control compound al dilution series in wells […] (12-point, 4-fold dilutions). C-terminal HiBiT-tagged Jurkat cells (polyclonal cell line or clone 8D5) were plated at 1×10^6 cells/mL, 30 μL/well (3×10^4 cells/well) in complete RPMI (10% FBS, 1% L-glutamine). Cells were incubated for 4 hrs at 32° C./6% CO2. Compound al has the following structure:\nFollowing incubation, 30 μL of complete Nano-Glo HiBiT Lytic Detection Reagent (Nano-Glo HiBiT Lytic Buffer with 1:50 Nano-Glo HiBiT Lytic Substrate and 1:100 LgBiT Protein; Promega cat. no. N3040) was added. Cells were further incubated for 10 min at room temperature (RT). Luminescence units (LU) were read on an EnVision plate reader (Perkin Elmer, 0.1 sec per well). Percent IRAK4 remaining per sample was calculated as follows: […]\nUsing Graphpad Prism, % IRAK4 remaining values were plotted as a function of compound concentration. To determine DC50 and Dmax values, resulting curves were fit to the Prism curve-fitting equation “log (inhibitor) vs response-Variable slope (four parameters)” (reported best fit value IC50 used as DC50). Table 1 summarizes the biological data of Compounds of Examples 1-137 and 142-145 obtained from the assays described herein.",
  "data": [
    {"smiles": "N#Cc1cnn2c(-c3cc(NC4CCOCC4)c(-c4nnc(N5CC6CCC(C5)N6C(=O)C5CCN(c6ccc([C@@H]7CCC(=O)NC7=O)cn6)CC5)s4)cn3)ccc2c1", "note": "(racemic) [Example 29, rac-7-(5-{5-[8-(1-{5-[(3R)-2,6-dioxopiperidin-3-yl]pyridin-2-yl}piperidine-4-carbonyl)-3,8-diazabicyclo[3.2.1]octan-3-yl]-1,3,4-thiadiazol-2-yl}-4-[(oxan-4-yl)amino]pyridin-2-yl)pyrrolo[1,2-b]pyridazine-3-carbonitrile]", "values": [
      {"measurement": "DC50", "value": 0.009, "unit": "µM"},
      {"measurement": "Dmax", "value": 79, "unit": "%"}
    ]},
    {"smiles": "CC(C)Nc1cc(-c2ccc3cc(C#N)cnn23)ncc1-c1nnc(N2CCN(C(=O)CC3CCN(c4ccc(C5CCC(=O)NC5=O)cn4)CC3)CC2)s1", "note": "(racemic) [Example 19, rac-7-[5-(5-{4-[2-(1-{5-[(3R)-2,6-dioxopiperidin-3-yl]pyridin-2-yl}piperidin-4-yl)acetyl]piperazin-1-yl}-1,3,4-thiadiazol-2-yl)-4-[(propan-2-yl)amino]pyridin-2-yl]pyrrolo[1,2-b]pyridazine-3-carbonitrile]", "values": [
      {"measurement": "DC50", "value": 0.029, "unit": "µM"},
      {"measurement": "Dmax", "value": 103, "unit": "%"}
    ]},
    {"smiles": "N#Cc1cnn2c(-c3cc(N[C@H]4CCOC4)c(-c4nnc(N5CCN(CC6CCN(c7ccc([C@H]8CCC(=O)NC8=O)cn7)CC6)CC5)s4)cn3)ccc2c1", "note": "(mixture of isomers) [Example 93, 7-[5-(5-{4-[(1-{5-[(3RS)-2,6-dioxopiperidin-3-yl]pyridin-2-yl}piperidin-4-yl)methyl]piperazin-1-yl}-1,3,4-thiadiazol-2-yl)-4-{[(3R)-oxolan-3-yl]amino}pyridin-2-yl]pyrrolo[1,2-b]pyridazine-3-carbonitrile]", "values": [
      {"measurement": "DC50", "value": 0.016, "unit": "µM"},
      {"measurement": "Dmax", "value": 115, "unit": "%"}
    ]},
    {"smiles": "N#CCNc1cc(-c2ccc3cc(C#N)cnn23)ncc1-c1nnc(N2CC3CCC(C2)N3CC2CCN(c3ccc([C@@H]4CCC(=O)NC4=O)cc3)CC2)s1", "note": "(single isomer, unassigned) [Example 128]", "values": [
      {"measurement": "DC50", "value": 0.006, "unit": "µM"},
      {"measurement": "Dmax", "value": 111, "unit": "%"}
    ]},
    {"smiles": "CCNc1cc(-c2ccc3cc(C#N)cnn23)ncc1-c1nnc(N2CCN(CC3CCN(c4ccc(N5CCC(=O)NC5=O)cn4)CC3)CC2)s1", "note": "[Example 71, 7-(5-{5-[4-({1-[5-(2,4-dioxo-1,3-diazinan-1-yl)pyridin-2-yl]piperidin-4-yl}methyl)piperazin-1-yl]-1,3,4-thiadiazol-2-yl}-4-(ethylamino)pyridin-2-yl)pyrrolo[1,2-b]pyridazine-3-carbonitrile]", "values": [
      {"measurement": "DC50", "value": 0.006, "unit": "µM"},
      {"measurement": "Dmax", "value": 110, "unit": "%"}
    ]},
    {"smiles": "CNc1cc(-c2ccc3cc(C#N)cnn23)ncc1-c1nnc(C23CCC(CN4CCN(c5ccc(C6CCC(=O)NC6=O)cn5)CC4)(CC2)CC3)s1", "note": "(racemic) [Example 25, rac-7-[5-(5-{4-[(4-{5-[(3R)-2,6-dioxopiperidin-3-yl]pyridin-2-yl}piperazin-1-yl)methyl]bicyclo[2.2.2]octan-1-yl}-1,3,4-thiadiazol-2-yl)-4-(methylamino)pyridin-2-yl]pyrrolo[1,2-b]pyridazine-3-carbonitrile]", "values": [
      {"measurement": "DC50", "value": 0.053, "unit": "µM"},
      {"measurement": "Dmax", "value": 106, "unit": "%"}
    ]},
    {"smiles": "C[C@H](C#N)Nc1cc(-c2ccc3cc(C#N)cnn23)ncc1-c1nnc(N2CC3CCC(C2)N3CC2CCN(c3ccc([C@H]4CCC(=O)NC4=O)cn3)CC2)s1", "note": "(single isomer, unassigned) [Example 142]", "values": [
      {"measurement": "DC50", "value": 0.012, "unit": "µM"},
      {"measurement": "Dmax", "value": 96, "unit": "%"}
    ]},
    {"smiles": "N#Cc1cnn2c(-c3cc(NC4CCOCC4)c(-c4nnc(N5CCN(CC6CCN(c7ccc(C8CCC(=O)NC8=O)cc7)CC6)CC5)s4)cn3)ccc2c1", "note": "(racemic) [Example 9, rac-7-[5-(5-{4-[(1-{4-[(3R)-2,6-dioxopiperidin-3-yl]phenyl}piperidin-4-yl)methyl]piperazin-1-yl}-1,3,4-thiadiazol-2-yl)-4-[(oxan-4-yl)amino]pyridin-2-yl]pyrrolo[1,2-b]pyridazine-3-carbonitrile]", "values": [
      {"measurement": "DC50", "value": 0.069, "unit": "µM"},
      {"measurement": "Dmax", "value": 90, "unit": "%"}
    ]}
  ]
}
